Data from patent US6586440B2, “Pharmaceutical compositions of 5-alkynyl uracil compounds” (SmithKline Beecham Corporation, priority 1990, dated 2003).
Where two headings read alike, the source gives them in different places.

Assays:
[1] = molecular target: T1, Uracil reductase (dihydropyrimidine dehydrogenase, EC 1.3.1.2) (Bos taurus, UniProt Q28007); experiment: Determination of uracil reductase inactivation; assay type: biochemical, bovine; settings: for inhibition at 100 µM: 0.5 h; for relative first-order rate constants for inactivation of enzyme (parenthetical values): fractional activity as a function of time of incubation of 50 μM inactivator with enzyme
T1 construct: (dihydropyrimidine dehydrogenase, EC 1.3.1.2) purified from bovine live; from tissue; host or cells: bovine liver ('bovine live' [sic])
T1 sequence (Q28007 1-1025): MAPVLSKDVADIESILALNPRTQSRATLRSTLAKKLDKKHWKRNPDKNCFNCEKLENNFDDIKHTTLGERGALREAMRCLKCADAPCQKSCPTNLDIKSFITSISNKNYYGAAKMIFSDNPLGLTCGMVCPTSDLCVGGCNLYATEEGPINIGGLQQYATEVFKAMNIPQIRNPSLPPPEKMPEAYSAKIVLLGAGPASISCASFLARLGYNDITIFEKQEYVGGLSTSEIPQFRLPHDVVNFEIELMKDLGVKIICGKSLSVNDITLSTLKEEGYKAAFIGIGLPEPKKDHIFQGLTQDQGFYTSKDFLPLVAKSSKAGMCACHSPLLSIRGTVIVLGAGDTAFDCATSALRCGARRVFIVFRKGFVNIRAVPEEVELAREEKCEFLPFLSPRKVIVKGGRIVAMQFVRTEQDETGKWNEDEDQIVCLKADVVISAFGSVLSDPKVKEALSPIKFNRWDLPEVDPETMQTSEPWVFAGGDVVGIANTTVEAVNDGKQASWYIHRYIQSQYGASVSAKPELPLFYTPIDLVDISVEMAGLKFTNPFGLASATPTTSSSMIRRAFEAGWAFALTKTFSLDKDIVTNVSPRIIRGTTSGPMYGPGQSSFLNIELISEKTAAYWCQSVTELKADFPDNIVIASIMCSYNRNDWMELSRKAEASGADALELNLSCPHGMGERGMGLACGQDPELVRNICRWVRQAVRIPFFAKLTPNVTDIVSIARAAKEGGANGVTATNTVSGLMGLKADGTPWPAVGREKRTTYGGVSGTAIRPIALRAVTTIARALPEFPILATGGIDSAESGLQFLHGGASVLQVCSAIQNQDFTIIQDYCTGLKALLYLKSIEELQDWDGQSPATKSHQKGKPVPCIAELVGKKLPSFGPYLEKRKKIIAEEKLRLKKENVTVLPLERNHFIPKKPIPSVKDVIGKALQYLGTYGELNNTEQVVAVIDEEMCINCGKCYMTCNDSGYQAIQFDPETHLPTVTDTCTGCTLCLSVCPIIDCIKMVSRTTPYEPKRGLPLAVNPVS
Protocol: Determination of Uracil Reductase Inactivation
Uracil reductase (1 μM) (dihydropyrimidine dehydrogenase, EC 1.3.1.2) purified from bovine live was incubated with 100 μM inactivator and 5 mM dithiothreitol (enzyme reductant) at 37° for 30 minutes in 0.05 M Tris-HCL at pH 8.0. The enzyme and inactivator were diluated 100-fold into the assay buffer, which contained 200 μM NADPH, 200 μM thymine and 1 μM dithiothreitol in Tris-HCl at pH 8.0. The velocity of the enzyme was determined spectrophotometrically. These velocities have been corrected for NADPH oxidase activity, which was less than 10% of the rate of thymine-dependent oxidation of NADPH. The % inactivation of the enzyme was equal to 100% minus the percent of enzymatic activity remaining. Enzyme incubated without inhibitor was stable under these conditions. Parenthetical values are the relative first-order rate constants for inactivation of enzyme determined from similar experiments where the fractional activity was measured as a function of the time of incubation of 50 μM inactivator with enzyme.

Male mice = experiment: Protection from zidovudine toxicity in mice; assay type: in vivo
Protocol: Male mice were doses p.o. with 1000 mg/kg/day of zidovudine for 30 days either alone, or 1.5 hours after dosing with 2 mg/kg/day of 5-ethynyluracil (5-EU). Other groups of mice (a) were dosed with 2 mg/kg/day of 5-ethynyluracil alone; and (b) served as controls, receiving neither zidovudine nor 5-ethynyluracil. Levels of haematocrit, haemoglobin and red blood cells were determined.

[2] = 1 μM enzyme incubated with 100 μM inactivator and 5 mM dithiothreitol, 37°, 30 minutes, pH 8.0, then diluted 100-fold into assay buffer, read-out: % Inactivation
[3] = male mice, p.o., 30 days, zidovudine 1000 mg/kg/day, 5-EU 2 mg/kg/day, given 1.5 hours before zidovudine in the combination

SMILES | inhibition at 100 µM [1, 2] [%] | relative first-order rate constants for inactivation of enzyme (parenthetical values) [1] | other results
O=c1[nH]cc(C(F)(F)F)c(=O)[nH]1 [5-trifluorouracil] | – | – | % Inactivation ([1]; 1 μM enzyme incubated with 100 μM inactivator and 5 mM dithiothreitol, 37°, 30 minutes, pH 8.0, then diluted 100-fold into assay buffer): 75%
O=c1[nH]cc(C#CBr)c(=O)[nH]1 [5-bromoethynyluracil] | 100 | (8) | –
O=c1[nH]cc(Br)c(=O)[nH]1 [5 -bromouracil, 5-bromouracil] | – | – | inhibition at 100 µM ([1]; pH 8, read-out: % Inactivation): 75%
N#Cc1c[nH]c(=O)[nH]c1=O [5-cyanouracil] | 100 | (14) | –
O=c1[nH]cc(C(Cl)=CBr)c(=O)[nH]1 [5-(2-bromo-1-chlorovinyl)uracil] | 68 | – | –
C=C(Cl)c1c[nH]c(=O)[nH]c1=O [5-(1-chlorovinyl)uracil] | 100 | (5) | –
O=c1[nH]cc(C=CBr)c(=O)[nH]1 [5-bromovinyluracil] | 93 | – | –

Now from value to compound, other results behind:

inhibition at 100 µM [1, 2] [%] | relative first-order rate constants for inactivation of enzyme (parenthetical values) [1] | SMILES | other results
100 | (8) | CC#Cc1c[nH]c(=O)[nH]c1=O [5-propynyluracil, 5-Propynyluracil] | melting point: 275 to 280 °C (dec.)
100 | (4) | O=c1[nH]cc(I)c(=O)[nH]1 [Example 5-iodouracil, 5-iodouracil] | –
90 | – | CCCCC#Cc1c[nH]c(=O)[nH]c1=O [5-hex-1-ynyluracil] | –
86 | – | C=Cc1c[nH]c(=O)[nH]c1=O [5-vinyluracil] | –
100 | (100) | C#Cc1c[nH]c(=O)[nH]c1=O [5-ethynyluracil, 5-Ethynyluracil] | HEMATOCRIT (Male mice; [3]): 45.9%; HEMOGLOBIN (Male mice; [3]): 15.1 g/dL; RED BLOOD CELLS (Male mice; [3]): 9.1 million/µL; prevention of red-blood cell anaemia induced by treatment with zidovudine (Male mice; mice): at least partially prevented
